Laboratory results: ChEMBL document CHEMBL1201862, “PubChem BioAssay data set” (2004)
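Growth conditions: 96-well plates. Treatment: test compound, 48 hours, 5 concentrations. Analysis: linear interpolation between bracketing concentrations; unreached endpoints set to highest concentration. At the GI50, growth is halved.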 The source made the active and inactive calls. Cut-off read from the data, not from the text of the source: active = GI50 up to about 1.1 µM and inactive = higher.

Key:
Experiment in all cases: NCI-60 cell line screen, 48 h
UO-31 = test system: UO-31
K562 = test system: K562
HOP-92 = test system: HOP-92
M14 = test system: M14
HT-29 = test system: HT-29
MDA-MB-435 = test system: MDA-MB-435
NCI-H522 = test system: NCI-H522
CAKI-1 = test system: CAKI-1
SF-295 = test system: SF-295
SNB-19 = test system: SNB-19
NCI-H23 = test system: NCI-H23
PC-3 = test system: PC-3
UACC-62 = test system: UACC-62
COLO 205 = test system: COLO 205
SK-MEL-28 = test system: SK-MEL-28
MOLT-4 = test system: MOLT-4
BT-549 = test system: BT-549
TK-10 = test system: TK-10
SF-268 = test system: SF-268
SK-MEL-2 = test system: SK-MEL-2
MDA-MB-231 = test system: MDA-MB-231
SK-MEL-5 = test system: SK-MEL-5
OVCAR-4 = test system: OVCAR-4
OVCAR-5 = test system: OVCAR-5
MDA-N = test system: MDA-N
NCI/ADR-RES = test system: NCI/ADR-RES
NCI-H460 = test system: NCI-H460
KM12 = test system: KM12
EKVX = test system: EKVX
MCF7 = test system: MCF7
RXF 393 = test system: RXF 393
T47D = test system: T47D
OVCAR-8 = test system: OVCAR-8
SN12C = test system: SN12C
SW-620 = test system: SW-620
UACC-257 = test system: UACC-257
IGROV-1 = test system: IGROV-1
HCT-15 = test system: HCT-15
SF-539 = test system: SF-539
OVCAR-3 = test system: OVCAR-3
A549 = test system: A549
A498 = test system: A498
LOX IMVI = test system: LOX IMVI
HOP-62 = test system: HOP-62
HCC 2998 = test system: HCC 2998
NCI-H226 = test system: NCI-H226
786-0 = test system: 786-0
SNB-75 = test system: SNB-75
Hs-578T = test system: Hs-578T
U-251 = test system: U-251
HCT-116 = test system: HCT-116
ACHN = test system: ACHN
SK-OV-3 = test system: SK-OV-3
CCRF-CEM = test system: CCRF-CEM
DU-145 = test system: DU-145
RPMI-8226 = test system: RPMI-8226
Malme-3M = test system: Malme-3M
SR = test system: SR

## CSc1nc(Cl)c2c(n1)Sc1nc3ccccc3n1C2O (stereo not drawn)
UO-31
  GI50: 3.44 µM (inactive)
K562
  GI50: 3.71 µM (inactive)
HOP-92
  GI50: 5.31 µM (inactive)
M14
  GI50: 3.46 µM (inactive)
HT-29
  GI50: 3.52 µM (inactive)
MDA-MB-435
  GI50: 3.63 µM (inactive)
NCI-H522
  GI50: 2.73 µM (inactive)
CAKI-1
  GI50: 1.85 µM (inactive)
SF-295
  GI50: 21.3 µM (inactive)
SNB-19
  GI50: 14.4 µM (inactive)
NCI-H23
  GI50: 5.65 µM (inactive)
PC-3
  GI50: 4.29 µM (inactive)
UACC-62
  GI50: 3.42 µM (inactive)
COLO 205
  GI50: 2.64 µM (inactive)
SK-MEL-28
  GI50: 6.79 µM (inactive)
MOLT-4
  GI50: 3.48 µM (inactive)
BT-549
  GI50: 4.73 µM (inactive)
TK-10
  GI50: 7.13 µM (inactive)
SF-268
  GI50: 5.25 µM (inactive)
SK-MEL-2
  GI50: 4.38 µM (inactive)
MDA-MB-231
  GI50: 4.88 µM (inactive)
SK-MEL-5
  GI50: 2.5 µM (inactive)
OVCAR-4
  GI50: 17.2 µM (inactive)
OVCAR-5
  GI50: 4.92 µM (inactive)
MDA-N
  GI50: 2.86 µM (inactive)
NCI/ADR-RES
  GI50: 3.27 µM (inactive)
NCI-H460
  GI50: 13.4 µM (inactive)
KM12
  GI50: 3.44 µM (inactive)
EKVX
  GI50: 33.4 µM (inactive)
MCF7
  GI50: 4.02 µM (inactive)
RXF 393
  GI50: 1.58 µM (inactive)
T47D
  GI50: 15.3 µM (inactive)
OVCAR-8
  GI50: 2.84 µM (inactive)
SN12C
  GI50: 4.85 µM (inactive)
SW-620
  GI50: 3.52 µM (inactive)
UACC-257
  GI50: 13.5 µM (inactive)
IGROV-1
  GI50: 3.87 µM (inactive)
HCT-15
  GI50: 3.4 µM
SF-539
  GI50: 1.83 µM (inactive)
OVCAR-3
  GI50: 5.3 µM (inactive)
A549
  GI50: 7.38 µM (inactive)
A498
  GI50: > 79.1 µM (inactive)
LOX IMVI
  GI50: 0.861 µM (active)
HOP-62
  GI50: 13.8 µM (inactive)
HCC 2998
  GI50: 3.91 µM (inactive)
NCI-H226
  GI50: 29.1 µM (inactive)
786-0
  GI50: 2.15 µM (inactive)
SNB-75
  GI50: 10.6 µM (inactive)
Hs-578T
  GI50: 5.36 µM (inactive)
U-251
  GI50: 3.67 µM (inactive)
HCT-116
  GI50: 2.48 µM (inactive)
ACHN
  GI50: 5.89 µM (inactive)
SK-OV-3
  GI50: 47.9 µM (inactive)
CCRF-CEM
  GI50: 1.36 µM (inactive)
DU-145
  GI50: 11.4 µM (inactive)
RPMI-8226
  GI50: 2.85 µM (inactive)
Malme-3M
  GI50: 4.91 µM (inactive)

## CC1=CC[C@H](C[C@H](C#CCCCC2OCCO2)O[Si](C(C)C)(C(C)C)C(C)C)C(=O)CC1
UO-31
  GI50: > 100 µM (inactive)
K562
  GI50: > 100 µM (inactive)
HOP-92
  GI50: > 100 µM (inactive)
M14
  GI50: > 100 µM (inactive)
HT-29
  GI50: > 100 µM (inactive)
MDA-MB-435
  GI50: > 100 µM (inactive)
CAKI-1
  GI50: > 100 µM (inactive)
SF-295
  GI50: > 100 µM (inactive)
SNB-19
  GI50: > 100 µM (inactive)
NCI-H23
  GI50: > 100 µM (inactive)
PC-3
  GI50: > 100 µM (inactive)
UACC-62
  GI50: > 100 µM (inactive)
COLO 205
  GI50: > 100 µM (inactive)
SK-MEL-28
  GI50: > 100 µM (inactive)
MOLT-4
  GI50: > 100 µM (inactive)
BT-549
  GI50: > 100 µM (inactive)
TK-10
  GI50: > 100 µM (inactive)
SF-268
  GI50: > 100 µM (inactive)
SK-MEL-2
  GI50: > 100 µM (inactive)
MDA-MB-231
  GI50: > 100 µM (inactive)
SK-MEL-5
  GI50: > 100 µM (inactive)
OVCAR-4
  GI50: > 100 µM (inactive)
OVCAR-5
  GI50: > 100 µM (inactive)
MDA-N
  GI50: > 100 µM (inactive)
NCI/ADR-RES
  GI50: > 100 µM (inactive)
NCI-H460
  GI50: > 100 µM (inactive)
KM12
  GI50: > 100 µM (inactive)
EKVX
  GI50: > 100 µM (inactive)
MCF7
  GI50: > 100 µM (inactive)
RXF 393
  GI50: > 100 µM (inactive)
SR
  GI50: > 100 µM (inactive)
T47D
  GI50: > 100 µM (inactive)
OVCAR-8
  GI50: > 100 µM (inactive)
SN12C
  GI50: > 100 µM (inactive)
SW-620
  GI50: > 100 µM (inactive)
UACC-257
  GI50: > 100 µM (inactive)
IGROV-1
  GI50: > 100 µM (inactive)
HCT-15
  GI50: > 100 µM
OVCAR-3
  GI50: > 100 µM (inactive)
A549
  GI50: > 100 µM (inactive)
A498
  GI50: > 100 µM (inactive)
LOX IMVI
  GI50: > 100 µM (inactive)
HOP-62
  GI50: > 100 µM (inactive)
HCC 2998
  GI50: > 100 µM (inactive)
NCI-H226
  GI50: > 100 µM (inactive)
786-0
  GI50: > 100 µM (inactive)
SNB-75
  GI50: > 100 µM (inactive)
Hs-578T
  GI50: > 100 µM (inactive)
U-251
  GI50: > 100 µM (inactive)
HCT-116
  GI50: > 100 µM (inactive)
ACHN
  GI50: > 100 µM (inactive)
SK-OV-3
  GI50: > 100 µM (inactive)
CCRF-CEM
  GI50: > 100 µM (inactive)
DU-145
  GI50: > 100 µM (inactive)
RPMI-8226
  GI50: > 100 µM (inactive)
Malme-3M
  GI50: > 100 µM (inactive)
